Source: ChEMBL document CHEMBL1126373, “HIV and reverse transcriptase inhibition by tannins” (Bioorg Med Chem Lett, 1992)
Active and inactive are the calls of the source. No cut-off for these calls is given here.

Columns and labels:
[1] = tested on: Human immunodeficiency virus 1; experiment: Compound was tested for anti-HIV activity in cell culture assay; active anti HIV agent; type: functional, organism-based
[2] = tested on: Human immunodeficiency virus 1; experiment: Anti-HIV activity in cell culture assay expressed as IC50 values.; type: functional, organism-based
[3] = tested on: Human immunodeficiency virus 1; experiment: Inhibition against HIV replication in cell culture at 20 ug/mL; type: functional; conditions: for inhibition at 20 µg/mL: Human immunodeficiency virus 1
[4] = tested on: Human immunodeficiency virus 1; experiment: Anti-HIV activity in cell culture assay expressed as EC50 values.; type: functional, organism-based
[5] = (§1) Therapeutic index was determined; conditions: Human immunodeficiency virus 1
[6] = tested on: Human immunodeficiency virus 1; experiment: Compound was tested for anti-HIV activity in cell culture assay expressed as IC50 values; type: functional, organism-based
[7] = target: Human immunodeficiency virus type 1 reverse transcriptase (Human immunodeficiency virus 1) (UniProt Q72547); experiment: Inhibition against HIV- reverse transcriptase in cell culture at 20 ug/mL
[8] = tested on: Human immunodeficiency virus 1; experiment: as §1; conditions: read-out: Therapeutic index

Compound	EC50 ([4]; Human immunodeficiency virus 1) [µM]	inhibition [7] [%]	IC50 ([2]; Human immunodeficiency virus 1) [µM]	Activity [1]	inhibition at 20 µg/mL [3] [%]	selectivity ratio [8]	further results
O=C1OC(C2OC(=O)c3cc(O)c(O)c(O)c3-c3c(O)c(O)c4oc(=O)c5c(c(O)c(O)c6oc(=O)c3c4c65)-c3c(cc(O)c(O)c3O)C(=O)OCC2O)C2OC(=O)c3c(c(O)c(O)c(O)c3[C@H]2O)-c2c1cc(O)c(O)c2O (stereo not given in full)	–	–	–	active anti HIV agent	–	–	–
O=C(Oc1c(O)cc(C(=O)O[C@@H]2C[C@](O)(C(=O)O)C[C@@H](OC(=O)c3cc(O)c(O)c(O)c3)[C@H]2OC(=O)c2cc(O)c(O)c(O)c2)cc1O)c1cc(O)c(O)c(O)c1	–	–	–	active anti HIV agent	–	–	–
O=C(OC[C@H]1O[C@@H](OC(=O)c2cc(O)c(O)c(O)c2)[C@H](OC(=O)c2cc(O)c(O)c(O)c2)[C@@H](OC(=O)c2cc(O)c(O)c(O)c2)[C@@H]1OC(=O)c1cc(O)c(O)c(O)c1)c1cc(O)c(O)c(O)c1 (stereo in doubt; 10) [PENTAGALLOYL GLUCOSE]	–	–	–	–	–	–	IC50 [2]: 19 µM; Inhibition [3]: 60%; EC50 [4]: 15 µM; Therapeutic index [5]: 1.3
O=C(Oc1c(O)cc(C(=O)O[C@H]2[C@H](OC(=O)c3cc(O)c(O)c(O)c3)C[C@](O)(C(=O)O)C[C@H]2OC(=O)c2cc(O)c(O)c(O)c2)cc1O)c1cc(O)c(O)c(O)c1	–	–	–	active anti HIV agent	–	–	–
O=C(O[C@@H]1C[C@](OC(=O)c2cc(O)c(O)c(O)c2)(C(=O)O)C[C@@H](OC(=O)c2cc(O)c(O)c(O)c2)[C@H]1OC(=O)c1cc(O)c(O)c(O)c1)c1cc(O)c(O)c(O)c1	–	–	–	Active	–	–	–
O=C(Oc1c(O)cc(C(=O)O[C@@H]2C[C@@](O)(C(=O)O)C[C@@H](OC(=O)c3cc(O)c(O)c(O)c3)[C@@H]2OC(=O)c2cc(O)c(O)c(O)c2)cc1O)c1cc(O)c(O)c(O)c1	–	–	–	active anti HIV agent	–	–	–
O=C1OCC2OC(=O)c3cc(O)c(O)c(O)c3-c3c(O)c(O)c(O)c4c3C(=O)OC(C2OC(=O)c2cc(O)c(O)c(O)c2-c2c1cc(O)c(O)c2O)C1OC(=O)C2C4=C(O)C(=O)C23Oc2cc(O)c4c(c2[C@H]13)O[C@H](c1ccc(O)c(O)c1)[C@@H](O)C4 (stereo not given in full)	4	23	15	–	89	3.8	–
O=C1O[C@H]2[C@H](O)[C@@H](OC(=O)c3cc(O)c(O)c4c3[C@@H]3C1=CC(=O)C(O)(O)C3(O)O4)[C@H](OC(=O)c1cc(O)c(O)c(O)c1)O[C@@H]2CO (stereo not given in full) [FUROSIN]	50	38	70	–	33	1.4	–
O=C1OC[C@H]2O[C@@H](O)[C@H](O)[C@@H](O)[C@@H]2OC(=O)c2cc(O)c(O)c(O)c2-c2c(O)c(O)c3oc(=O)c4c(c(O)c(O)c5oc(=O)c2c3c54)-c2c1cc(O)c(O)c2O	–	–	–	active anti HIV agent	–	–	–

Second part, led by results:

EC50 ([4]; Human immunodeficiency virus 1) [µM]	inhibition [7] [%]	IC50 ([2]; Human immunodeficiency virus 1) [µM]	Compound	Activity [1]	inhibition at 20 µg/mL [3] [%]	selectivity ratio [8]	further results
50	14	–	O=C(OC[C@H]1O[C@@H](OC(=O)c2cc(O)c(O)c(O)c2)[C@H](O)[C@@H](O)[C@@H]1O)c1cc(O)c(O)c(O)c1	–	40	0.8	IC50 [6]: 38 µM
100	18	–	O=C(O[C@@H]1O[C@H](CO)[C@@H](O)[C@H](O)[C@H]1O)c1cc(O)c(O)c(O)c1	–	0	0.8	IC50 [6]: 80 µM
15	34	21	O=C(O[C@@H]1O[C@H]2COC(=O)c3cc(O)c(O)c(O)c3-c3c(O)c(O)c(O)c(Oc4cc(C(=O)O[C@H]5O[C@H]6COC(=O)c7cc(O)c(O)c(O)c7-c7c(cc(O)c(O)c7O)C(=O)O[C@H]6[C@@H]6OC(=O)c7cc(O)c(O)c(O)c7-c7c(cc(O)c(O)c7O)C(=O)O[C@H]56)cc(O)c4O)c3C(=O)O[C@H]2[C@@H]2OC(=O)c3cc(O)c(O)c(O)c3-c3c(cc(O)c(O)c3O)C(=O)O[C@H]12)c1cc(O)c(O)c(O)c1	–	38	1.4	–
45	22	45	O=C1c2c(O)cc(O)cc2O[C@H](c2ccc(O)c(O)c2)[C@H]1O [(+)-TAXIFOLIN]	–	40	1	–
35	27	15	O=C1OCC2OC(=O)c3cc(O)c(O)c(O)c3-c3c(O)c(O)c(O)c4c3C(=O)OC(C2OC(=O)c2cc(O)c(O)c(O)c2-c2c1cc(O)c(O)c2O)C1OC(=O)c2c-4c(O)c(O)c(O)c2[C@@H]1[C@@]1(O)O[C@@H](CO)[C@@H](O)[C@H]1O (stereo not given in full)	–	35	0.4	–
